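Five compound concentrations were applied to cells in 96-well plates for 48 hours; endpoints were derived by simple linear interpolation of the resulting dose-response curve. GI50: concentration for 50% inhibition of growth.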 The source made the active and inactive calls. Cut-off read from the data, not from the text of the source: active = GI50 up to about 1.1 µM and inactive = higher.
Tests used:
Test in all cases: DTP human tumour cell line panel, 48 h
[1] = system: Malme-3M
[2] = system: HCT-116
[3] = system: DMS-114
[4] = system: NCI-H226
[5] = system: SR
[6] = system: RPMI-8226
[7] = system: HOP-92
[8] = system: SF-295
[9] = system: KM-20L2
[10] = system: A549
[11] = system: OVCAR-8
[12] = system: UACC-257
[13] = system: UACC-62
[14] = system: SNB-78
[15] = system: LXFL 529
[16] = system: SF-539
[17] = system: U-251
[18] = system: DLD-1
[19] = system: NCI-H460
[20] = system: HOP-62
[21] = system: MOLT-4
[22] = system: UO-31
[23] = system: K562
[24] = system: M14
[25] = system: NCI-H23
[26] = system: XF498
[27] = system: LOX IMVI
[28] = system: SK-OV-3
[29] = system: CCRF-CEM
[30] = system: SW-620
[31] = system: SF-268
[32] = system: NCI-H522
[33] = system: DMS-273
[34] = system: ACHN
[35] = system: 786-0
[36] = system: IGROV-1
[37] = system: OVCAR-3
[38] = system: SN12C
[39] = system: SNB-75
[40] = system: CAKI-1
[41] = system: SNB-19
[42] = system: HCT-15
[43] = system: OVCAR-5
[44] = system: HL-60
[45] = system: EKVX
[46] = system: COLO 205
[47] = system: SK-MEL-2
[48] = system: KM12
[49] = system: HT-29
[50] = system: OVCAR-4
[51] = system: RXF 393

N#CCc1cccc(CC#N)c1Br was tested, and the GI50 [1] was > 100 µM (inactive), the GI50 [2] was > 100 µM (inactive) and the GI50 [3] was > 100 µM (inactive). The GI50 [4] was > 100 µM (inactive), the GI50 [5] was > 100 µM (inactive) and the GI50 [6] was > 100 µM (inactive). The GI50 [7] was 45.2 µM (inactive), the GI50 [8] was > 100 µM (inactive) and the GI50 [9] was > 100 µM (inactive). For the same compound, the GI50 [10] was > 100 µM (inactive), the GI50 [11] was > 100 µM (inactive) and the GI50 [12] was > 100 µM (inactive). The GI50 [13] was > 100 µM (inactive), the GI50 [14] was > 100 µM (inactive) and the GI50 [15] was > 100 µM (inactive). For the same compound, the GI50 [16] was > 100 µM (inactive), the GI50 [17] was > 100 µM (inactive) and the GI50 [18] was > 100 µM (inactive). For the same compound, the GI50 [19] was > 100 µM (inactive), the GI50 [20] was > 100 µM (inactive) and the GI50 [21] was > 100 µM (inactive). For the same compound, the GI50 [22] was > 100 µM (inactive), the GI50 [23] was > 100 µM (inactive) and the GI50 [24] was > 100 µM (inactive). The GI50 [25] was > 100 µM (inactive), the GI50 [26] was > 100 µM (inactive) and the GI50 [27] was > 100 µM (inactive). The GI50 [28] was > 100 µM (inactive), the GI50 [29] was > 100 µM (inactive) and the GI50 [30] was > 100 µM (inactive). The GI50 [31] was 86.5 µM (inactive), the GI50 [32] was > 100 µM (inactive) and the GI50 [33] was > 100 µM (inactive). The GI50 [34] was > 100 µM (inactive), the GI50 [35] was > 100 µM (inactive) and the GI50 [36] was > 100 µM (inactive). For the same compound, the GI50 [37] was > 100 µM (inactive), the GI50 [38] was > 100 µM (inactive) and the GI50 [39] was > 100 µM (inactive). The GI50 [40] was > 100 µM (inactive), the GI50 [41] was > 100 µM (inactive) and the GI50 [42] was greater than 100 µM. For the same compound, the GI50 [43] was > 100 µM (inactive), the GI50 [44] was > 100 µM (inactive) and the GI50 [45] was > 100 µM (inactive). The GI50 [46] was > 100 µM (inactive), the GI50 [47] was > 100 µM (inactive) and the GI50 [48] was > 100 µM (inactive). The GI50 [49] was > 100 µM (inactive), the GI50 [50] was > 100 µM (inactive) and the GI50 [51] was 35 µM (inactive).
